From patent US5118681A (priority 1989, dated 1992)
In brackets after ≈: the same amount, converted by molar mass.

What was measured:
A.n = experiment: Minimum Inhibitory Concentration Test, alternate (Table 4), A.n; type: cell-based, Aspergillus niger; details: Aspergillus niger, TSB, 72 hours
Protocol: (§1) A 125 μl aliquot of 10,000 ppm test compound in acetone was added to 4.88 ml of TSB to provide a 250 ppm solution. From this solution, 100 μL was transferred to the first row of two microtiter plate columns. Both replicates and five additional compounds were all serially diluted 1:1 to a final concentration of 0.8 ppm in TSB.
(§2) Inoculation was accomplished by diluting a 24 hr Ps fl culture, four mls per 36 mls of phosphate buffer solution. A Dynatech autoinoculator was used to transfer 1.5 μl of this cell suspension to the microtiter plates. The plates were incubated at 30° C. for 3 days before the lowest concentration at which no growth occurs was recorded in the database. The SOK data and MIC test data on Ps.fl, Ps.ae, E.c, and S.a. bacteria and Candida albicans (C.alb), A.n and A.p fungi are listed in Table 4.

Ps.ae = experiment: Minimum Inhibitory Concentration Test, alternate (Table 4), Ps.ae; type: cell-based, Pseudomonas aerugenosa; details: Pseudomonas, TSB, 72 hours
Candida albicans (C.alb) = experiment: Minimum Inhibitory Concentration Test, alternate (Table 4), C.alb; type: cell-based; details: Candida albicans, TSB, 72 hours
Protocol: as §1, §2

[1] = test system: Erysiphe graminis (f. sp. tritici); experiment: whole plant or invertebrate; type: in vivo; details: Blumeria graminis; read-out: % control WPM
[2] = test system: Puccinia recondita (f. sp. tritici Races PKB and PLD); experiment: whole plant or invertebrate; type: in vivo; details: Puccinia recondita, 240 h; read-out: % control WLR
A.p = experiment: Minimum Inhibitory Concentration Test, alternate (Table 4), A.p; type: cell-based; details: Aureobasidium pullulans, TSB, 72 hours
Protocol: as §1, §2

[3] = test system: Pseudoperonospora cubensis; experiment: whole plant or invertebrate; type: in vivo; details: Pseudoperonospora cubensis, in Cucumis sativus, 168 h; read-out: % control CDM
Pseudomonas fluorescens = experiment: Minimum Inhibitory Concentration Test, alternate (Table 4), Ps.fl; type: cell-based; details: Pseudomonas fluorescens, TSB, 72 hours, 30° C
Protocol: as §1, §2

S.a = experiment: Minimum Inhibitory Concentration Test, alternate (Table 4), S.a; type: cell-based, Staphylococcus aureus; details: Staphylococcus aureus, TSB, 72 hours
Protocol: as §1, §2

Piricularia oryzae = experiment: whole plant or invertebrate; type: in vivo; details: Pyricularia oryzae, read-out: % control RB
Phytophthora infestans = experiment: whole plant or invertebrate; type: in vivo; details: Phytophthora infestans, in Solanum lycopersicum, 96 h, read-out: % control TLB
[4] = test system: Pellicularia filamentosa (f. sp. sasiki); experiment: whole plant or invertebrate; type: in vivo; details: 120 h; read-out: % control RSB
E.c = experiment: Minimum Inhibitory Concentration Test, alternate (Table 4), E.c; type: cell-based, Escherichia coli; details: Escherichia coli, TSB, 72 hours
Protocol: as §1, §2

SMILES | MIC (A.n) [µg/mL] | MIC (Ps.ae) [µg/mL] | MIC (Candida albicans (C.alb)) [µg/mL] | pest or weed control at 200 ppm [1] [%] | pest or weed control at 200 ppm [2] [%] | MIC (A.p) [µg/mL] | pest or weed control at 200 ppm [3] [%] | MIC (Pseudomonas fluorescens) [µg/mL] | MIC (S.a) [µg/mL] | pest or weed control at 200 ppm (Piricularia oryzae) [%] | pest or weed control at 200 ppm (Phytophthora infestans) [%] | pest or weed control at 200 ppm [4] [%] | MIC (E.c) [µg/mL] | pest or weed control at 100 ppm (Phytophthora infestans) [%] | pest or weed control at 100 ppm [1] [%] | pest or weed control at 100 ppm [2] [%] | pest or weed control at 100 ppm [3] [%] | pest or weed control at 100 ppm (Piricularia oryzae) [%] | pest or weed control at 100 ppm [4] [%] | pest or weed control at 25 ppm [2] [%]
CCCCCCCCNC(=O)/C=C\SC(C(C)=O)C(=O)OCC (stereo not drawn) [Example 11, N-n-octyl-cis-3-[2-(ethoxy-3-oxobutanoyl)thio]acrylamide] | 4 to 8 (≈ 11.6 to 23.3 µM) | > 500 | < 4 | 50 | 50 | < 4 | 85 | 250 to 500 (≈ 728 to 1460 µM) | > 500 | 0 | 0 | 0 | > 500 | – | – | – | – | – | – | –
CCCCCCCCNC(=O)/C=C\SC(C(C)=O)C(=O)NCc1ccccc1 (stereo not drawn) [Example 12, N-n-octyl-cis-3-[2-(N-benzylacetoacetamideo)thio]acrylamide] | 4 to 16 (≈ 9.89 to 39.5 µM) | > 500 | 16 (≈ 39.5 µM) | 75 | 75 | 8 (≈ 19.8 µM) | 100 | 125 to 500 (≈ 309 to 1240 µM) | > 500 | 75 | – | 25 | > 500 | 100 | – | – | – | – | – | –
CCCCCCCCNC(=O)/C=C\SC(C(C)=O)C(=O)C1CC1 (stereo not drawn) [Example 29, N-n-octyl-cis-3-[2-(1-cyclopropyl-1,3-butanedionyl)thio]acrylamide] | 8 to 31 (≈ 23.6 to 91.3 µM) | > 500 | 31 (≈ 91.3 µM) | 0 | 0 | 125 (≈ 368 µM) | 95 | > 500 | > 500 | 77 | 85 | 0 | > 500 | – | – | – | – | – | – | –
CCCCCCCCNC(=O)/C=C\SC(C(C)=O)C(=O)Nc1ccccc1OC (stereo not drawn) [Example 30, N-n-octyl-cis-3-{2-[N-(2-methoxyphenyl)acetoacetamido]thio}acrylamide] | 31 to 63 (≈ 73.7 to 150 µM) | 500 (≈ 1190 µM) | 8 (≈ 19 µM) | 0 | 0 | 250 (≈ 594 µM) | 100 | > 500 | > 500 | 90 | 80 | 0 | > 500 | – | – | – | – | – | – | –
CCCCCCCCNC(=O)/C=C\SC(C(=O)Nc1cccc(Cl)c1Cl)C(=O)OCC (stereo not drawn) [Example 35, N-n-octyl-cis-3-{2-[ethyl-N-(2,3-dichlorophenyl)malonamido]thio}acrylamide] | 8 to 16 (≈ 16.3 to 32.7 µM) | > 250 | 4 (≈ 8.17 µM) | – | – | < 2 | – | 500 (≈ 1020 µM) | > 250 | – | – | – | > 250 | 95 | 0 | 50 | 99 | 0 | 0 | –
CCCCCCCCNC(=O)/C=C\SC(C(=O)NC1CC1)C(=O)OCC (stereo not drawn) [Example 36, N-n-octyl-cis-3-[2-(ethyl-N-cyclopropylmalonamido)thio]acrylamide] | 8 to 16 (≈ 20.8 to 41.6 µM) | > 250 | 31 (≈ 80.6 µM) | – | – | < 2 | – | 500 (≈ 1300 µM) | 125 (≈ 325 µM) | – | – | – | > 250 | 47 | 0 | 50 | 100 | 90 | 0 | –
C=CCNC(=O)C(S/C=C\C(=O)NCCCCCCCC)C(=O)OCC (stereo not drawn) [Example 37, N-n-octyl-cis-3-{2-[ethyl-N-(2-propenyl)malonamido]thio}acrylamide] | 4 to 8 (≈ 10.4 to 20.8 µM) | > 250 | 8 (≈ 20.8 µM) | – | – | < 2 | – | 500 (≈ 1300 µM) | 31 (≈ 80.6 µM) | – | – | – | > 250 | 95 | 50 | 75 | 100 | 95 | 0 | –
CCCCCCCCNC(=O)/C=C\SC(C(=O)Nc1ccc(Cl)cc1Cl)C(=O)OCC (stereo not drawn) [Example 41, N-n-octyl-cis-3-{2-[ethyl-N-(2,4-dichlorophenyl)malonamido]thio}acrylamide] | 8 to 31 (≈ 16.3 to 63.3 µM) | > 500 | 63 (≈ 129 µM) | – | – | 8 (≈ 16.3 µM) | – | > 500 | > 500 | – | – | – | > 500 | 87 | 50 | 0 | 100 | 99 | 0 | –
CCCCCCCCNC(=O)/C=C\SC(C(=O)Nc1cc([N+](=O)[O-])ccc1Cl)C(=O)OCC (stereo not drawn) [Example 45, N-n-octyl-cis-3-{2-[ethyl-N-(2-chloro-5-nitrophenyl)malonamido]thio}acrylamide] | 4 to 8 (≈ 8 to 16 µM) | > 250 | 4 (≈ 8 µM) | – | – | < 2 | – | > 250 | 63 (≈ 126 µM) | – | – | – | > 250 | 0 | 0 | – | – | 0 | 0 | 50
CCCCCCCCNC(=O)/C=C\SC(C(C)=O)C(=O)Nc1ccc(OC)cc1 (stereo not drawn) [Example 47, N-n-octyl-cis-3-{2-[N-(4-methoxyphenyl)acetoacetamido]thio}acrylamide] | 4 to 16 (≈ 9.51 to 38 µM) | > 250 | 4 (≈ 9.51 µM) | – | – | < 2 | – | > 250 | 31 (≈ 73.7 µM) | – | – | – | > 250 | 80 | 0 | 0 | 100 | 0 | 0 | –
CCCCCCCCNC(=O)/C=C\SC(C(=O)Nc1ccc(Cl)c([N+](=O)[O-])c1)C(=O)OCC (stereo not drawn) [Example 48, N-n-octyl-cis-3-{2-[ethyl-N-(3-nitro-4-chlorophenyl)malonamido]thio}acrylamide] | 4 to 31 (≈ 8 to 62 µM) | > 250 | 31 (≈ 62 µM) | – | – | < 2 | – | > 250 | > 250 | – | – | – | > 250 | 99 | 0 | 50 | 99 | 0 | 0 | –
CCCCCCCCNC(=O)/C=C\SC(C(=O)Nc1ccc(OC)c(Cl)c1)C(=O)OCC (stereo not drawn) [Example 50, N-n-octyl-cis-3-{2-[ethyl-N-(3-chloro-4-methoxyphenyl)malonamido]thio}acrylamide] | – | > 250 | 63 to 250 (≈ 130 to 515 µM) | – | – | < 2 | – | > 250 | > 250 | – | – | – | > 250 | 0 | 0 | 50 | 85 | 0 | 0 | –
CCCCCCCCNC(=O)/C=C\SC(C(=O)NCCCN1CCOCC1)C(=O)OCC (stereo not drawn) [Example 51, N-n-octyl-cis-3-{2-[ethyl-N-(3-(4-morpholino)propyl)malonamido]thio}acrylamide] | < 2 | > 250 | < 2 | – | – | < 2 | – | > 250 | 31 (≈ 65.7 µM) | – | – | – | > 250 | 0 | 0 | 0 | 99 | 0 | 0 | –
CCCCCCCCNC(=O)/C=C\SC(C(=O)NN1CCOCC1)C(=O)OCC (stereo not drawn) [Example 63, N-n-octyl-cis-3-{2-[ethyl-N-(4-morpholino)malonamido]thio}acrylamide] | 2 to 16 (≈ 4.66 to 37.2 µM) | > 250 | < 2 | – | – | < 2 | – | > 250 | 31 (≈ 72.2 µM) | – | – | – | 250 (≈ 582 µM) | 0 | 0 | 0 | 99 | 0 | 0 | –
